Laboratory results: EPA's ToxValDB 9.5

Tested on: Rattus norvegicus
Settings: short-term, duration: 28 days, oral, gavage, M, Sprague-Dawley

## Cc1cccc(Nc2cc(Cl)nc(SCC(=O)O)n2)c1C [[4-Chloro-6-(2,3-xylidino)-2-pyrimidinylthio]acetic acid]
Clinical chemistry_Free thyroxine
  LOEL: 6.25 mg/kg-day
Clinical chemistry_Globulin
  LOEL: 6.25 mg/kg-day
Clinical chemistry_Indirect bilirubin
  NOEL: 25 mg/kg-day
Clinical chemistry_Sorbitol dehydrogenase
  LOEL: 6.25 mg/kg-day
Clinical chemistry_T bilirubin
  NOEL: 25 mg/kg-day
Clinical chemistry_Testosterone
  LOEL: 25 mg/kg-day
Clinical chemistry_Thyroid stimulating hormone
  LOEL: 25 mg/kg-day
Clinical chemistry_Total bile acids
  LOEL: 6.25 mg/kg-day
Clinical chemistry_Total bilirubin
  NOEL: 25 mg/kg-day
Clinical chemistry_Total protein
  LOEL: 6.25 mg/kg-day
Clinical chemistry_Total thyroxine
  LOEL: 6.25 mg/kg-day
Clinical chemistry_Total triiodothyronine
  NOEL: 25 mg/kg-day
Clinical chemistry_Triglycerides
  NOEL: 25 mg/kg-day
Gene expression_Acox1
  LOEL: 6.25 mg/kg-day
Gene expression_Acyl-CoA oxidase
  LOEL: 6.25 mg/kg-day
Gene expression_Altered sperm parameters
  LOEL: 6.25 mg/kg-day
Gene expression_Cyp2b1
  LOEL: 6.25 mg/kg-day
Gene expression_Cyp2b2
  LOEL: 6.25 mg/kg-day
Gene expression_Cyp4a1
  LOEL: 6.25 mg/kg-day
Hematology_Erythrocytes
  NOEL: 25 mg/kg-day
Hematology_Hematocrit
  NOEL: 25 mg/kg-day
Hematology_Hemoglobin
  NOEL: 25 mg/kg-day
Hematology_Leukocytes
  NOEL: 25 mg/kg-day
Hematology_Mean corpuscular hemoglobin concentration
  NOEL: 25 mg/kg-day
Hematology_Mean corpuscular volume
  NOEL: 25 mg/kg-day
Hematology_Platelets
  NOEL: 25 mg/kg-day
Hematology_Reticulocytes
  NOEL: 25 mg/kg-day
Hematology_S. neutrophils
  NOEL: 25 mg/kg-day
Nonneoplastic effects_Bone marrow - Hypocellularity
  NOEL: 25 mg/kg-day
Nonneoplastic effects_Epididymis - Duct, exfoliated germ cell
  NOEL: 25 mg/kg-day
Nonneoplastic effects_Epididymis - Epithelium, apoptosis
  NOEL: 25 mg/kg-day
Nonneoplastic effects_Epididymis - Hypospermia
  NOEL: 25 mg/kg-day
Nonneoplastic effects_Forestomach - Epithelium, hyperplasia
  NOEL: 25 mg/kg-day
Nonneoplastic effects_Forestomach - Inflammation, chronic active
  NOEL: 25 mg/kg-day
Nonneoplastic effects_Kidney - Nephropathy, chronic progressive
  NOEL: 25 mg/kg-day
Nonneoplastic effects_Kidney - Papilla, necrosis
  NOEL: 25 mg/kg-day
Nonneoplastic effects_Liver - Hepatocyte, Necrosis
  NOEL: 25 mg/kg-day
Nonneoplastic effects_Liver - Hepatocyte, cytoplasmic alteration
  LOEL: 6.25 mg/kg-day
Nonneoplastic effects_Liver - Hepatocyte, hypertrophy
  LOEL: 6.25 mg/kg-day
Nonneoplastic effects_Liver - Hepatocyte, vacuolization cytoplasmic
  NOEL: 25 mg/kg-day
Nonneoplastic effects_Liver - Necrosis
  NOEL: 25 mg/kg-day
Nonneoplastic effects_Lymph nodes - Mandibular, atrophy
  NOEL: 25 mg/kg-day
Nonneoplastic effects_Lymph nodes - Mesenteric, atrophy
  NOEL: 25 mg/kg-day
Nonneoplastic effects_Nose - Olfactory epithelium, degeneration
  NOEL: 25 mg/kg-day
Nonneoplastic effects_Nose - Olfactory epithelium, hyperplasia
  NOEL: 25 mg/kg-day
Nonneoplastic effects_Nose - Olfactory epithelium, inflammation, suppurative
  NOEL: 25 mg/kg-day
Nonneoplastic effects_Nose - Olfactory epithelium, necrosis
  NOEL: 25 mg/kg-day
Nonneoplastic effects_Nose - Respiratory epithelium, hyperplasia
  NOEL: 25 mg/kg-day
Nonneoplastic effects_Nose - Respiratory epithelium, inflammation, chronic active
  NOEL: 25 mg/kg-day
Nonneoplastic effects_Spleen - Atrophy
  NOEL: 25 mg/kg-day
Nonneoplastic effects_Spleen - Extramedullary hematopoiesis, decreased
  NOEL: 25 mg/kg-day
Nonneoplastic effects_Spleen - Extramedullary hematopoiesis, increased
  NOEL: 25 mg/kg-day
Nonneoplastic effects_Stomach, forestomach - Epithelium, hyperplasia
  NOEL: 25 mg/kg-day
Nonneoplastic effects_Testes - Germinal epithelium, degeneration
  NOEL: 25 mg/kg-day
Nonneoplastic effects_Testes - Interstitial cell, atrophy
  NOEL: 25 mg/kg-day
Nonneoplastic effects_Testes - Seminiferous tubule, spermatid retention
  NOEL: 25 mg/kg-day
Nonneoplastic effects_Thymus - Atrophy
  NOEL: 25 mg/kg-day
Nonneoplastic effects_Thymus - Lymphocyte, apoptosis
  NOEL: 25 mg/kg-day
Nonneoplastic effects_Thyroid gland - Follicular cell hypertrophy
  NOEL: 25 mg/kg-day
Organ weights_Heart - Absolute
  LOEL: 25 mg/kg-day
Organ weights_Heart - Relative
  NOEL: 25 mg/kg-day
Organ weights_Liver - Absolute
  LOEL: 6.25 mg/kg-day
Organ weights_Liver - Relative
  LOEL: 6.25 mg/kg-day
Organ weights_Lung - Absolute
  NOEL: 25 mg/kg-day
Organ weights_Lung - Relative
  NOEL: 25 mg/kg-day
Organ weights_R. adrenal gland - Absolute
  NOEL: 25 mg/kg-day
Organ weights_R. adrenal gland - Relative
  NOEL: 25 mg/kg-day
Organ weights_R. kidney - Absolute
  LOEL: 6.25 mg/kg-day
Organ weights_R. kidney - Relative
  LOEL: 6.25 mg/kg-day
Organ weights_R. testis - Absolute
  NOEL: 25 mg/kg-day
Organ weights_Spleen - Absolute
  LOEL: 6.25 mg/kg-day
Organ weights_Spleen - Relative
  NOEL: 25 mg/kg-day
Organ weights_Thymus - Absolute
  NOEL: 25 mg/kg-day
Organ weights_Thymus - Relative
  NOEL: 25 mg/kg-day
Organ weights_Thyroid gland - Absolute
  NOEL: 25 mg/kg-day
Reproductive toxicity_Altered sperm parameters
  LOEL: 6.25 mg/kg-day
Survival rates
  NOEL: 25 mg/kg-day
